Reference: ChEMBL document CHEMBL1127646, “Mechanism-based isocoumarin inhibitors for blood coagulation serine proteases. Effect of the 7-substituent in 7-amino-4-chloro-3-(isothioureidoalkoxy)isocoumarins on inhibitory and anticoagulant potency” (J Med Chem, 1994)
Peptide text beside a SMILES is read from it. * marks the point of attachment. Dansyl = CN(C)c1cccc2c(S(=O)(=O)*)cccc12; CH2Cl = ClC*

Target: T1, Coagulation factor VII (Homo sapiens) (UniProt P08709)
T1 sequence (whole entry): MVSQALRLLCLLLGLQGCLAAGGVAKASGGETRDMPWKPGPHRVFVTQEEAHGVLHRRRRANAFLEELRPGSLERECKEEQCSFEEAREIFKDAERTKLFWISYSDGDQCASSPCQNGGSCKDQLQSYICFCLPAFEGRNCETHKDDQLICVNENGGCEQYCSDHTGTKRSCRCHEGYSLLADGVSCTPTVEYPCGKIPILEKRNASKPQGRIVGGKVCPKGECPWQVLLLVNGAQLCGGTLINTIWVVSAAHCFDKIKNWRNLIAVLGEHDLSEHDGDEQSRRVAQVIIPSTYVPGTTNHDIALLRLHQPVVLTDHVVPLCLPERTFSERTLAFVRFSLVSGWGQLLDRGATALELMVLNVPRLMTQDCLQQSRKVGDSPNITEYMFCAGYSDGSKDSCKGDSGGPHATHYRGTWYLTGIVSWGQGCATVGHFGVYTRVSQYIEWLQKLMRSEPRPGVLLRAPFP
Experiment: Inhibition of human coagulation factor VII at 7.2-44 uM
Conditions: not given

Going from CN(C)c1cccc2c(S(=O)(=O)N[C@@H](CCC(=O)O)C(=O)NCC(=O)N[C@@H](CCCN=C(N)N)C(=O)CCl)cccc12 (Dansyl-Glu-Gly-Arg-CH2Cl) to N=C(N)SCCOc1oc(=O)c2cc(NC(=O)[C@H](N)Cc3ccccc3)ccc2c1Cl, the K obs / 1 rises from 20 M⁻¹ s⁻¹ to 4010 M⁻¹ s⁻¹ (200-fold).

N=C(N)SCCCOc1oc(=O)c2ccccc2c1Cl and N=C(N)SCCCOc1oc(=O)c2cc(N)ccc2c1Cl are within 1.5-fold of each other in K obs / 1: 450 M⁻¹ s⁻¹ for the first, 430 M⁻¹ s⁻¹ for the second.

N=C(N)SCCCOc1oc(=O)c2cc(NC(=O)Nc3ccccc3)ccc2c1Cl and N=C(N)SCCCOc1oc(=O)c2cc(NC(=O)Cc3ccccc3)ccc2c1Cl are within 1.5-fold of each other in K obs / 1: 720 M⁻¹ s⁻¹ for the first, 610 M⁻¹ s⁻¹ for the second.

Going from CCOc1oc(=O)c2cc(NC(=N)N)ccc2c1Cl to N=C(N)SCCOc1oc(=O)c2cc(NC(=O)Cc3ccccc3)ccc2c1Cl, the K obs / 1 falls from 2200 M⁻¹ s⁻¹ to 1100 M⁻¹ s⁻¹ (2-fold).

Target: Prothrombin (Bos taurus) (UniProt P00735)
Experiment: Inhibition of bovine thrombin (inhibitor concentration 1.2-54 uM)
Conditions: not given

Compared with N=C(N)SCCCOc1oc(=O)c2ccccc2c1Cl, N=C(N)SCCCOc1oc(=O)c2cc(N)ccc2c1Cl is 2.2-fold lower in K obs / 1: 1400 M⁻¹ s⁻¹ for the first, 630 M⁻¹ s⁻¹ for the second.

Going from N=C(N)SCCCOc1oc(=O)c2cc(NC(=O)Nc3ccccc3)ccc2c1Cl to N=C(N)SCCCOc1oc(=O)c2cc(NC(=O)Cc3ccccc3)ccc2c1Cl, the K obs / 1 falls from 970 M⁻¹ s⁻¹ to 600 M⁻¹ s⁻¹ (1.6-fold).

Going from N=C(N)SCCOc1oc(=O)c2cc(NC(=O)[C@H](N)Cc3ccccc3)ccc2c1Cl to N=C(N)SCCOc1oc(=O)c2cc(NC(=O)Cc3ccccc3)ccc2c1Cl, the K obs / 1 rises from 1280 M⁻¹ s⁻¹ to 15800 M⁻¹ s⁻¹ (12-fold).

Compound CCOc1oc(=O)c2cc(NC(=N)N)ccc2c1Cl has a K obs / 1 of 55000 M⁻¹ s⁻¹.

System: not listed separately
Experiment: Hydrolysis half life (t1/2)
Assay type: ADME
Conditions: not given

Going from N=C(N)SCCCOc1oc(=O)c2cc(NC(=O)Nc3ccccc3)ccc2c1Cl to N=C(N)SCCCOc1oc(=O)c2cc(NC(=O)Cc3ccccc3)ccc2c1Cl, the half-life falls from 2.47 h to 1.02 h (2.4-fold).

First: N=C(N)SCCOc1oc(=O)c2cc(NC(=O)[C@H](N)Cc3ccccc3)ccc2c1Cl
Second: N=C(N)SCCCOc1oc(=O)c2cc(N)ccc2c1Cl
The half-life of the first is 4.3-fold lower: 0.35 h for the first, 1.5 h for the second.

Target: Coagulation factor X (Homo sapiens) (UniProt P00742)
Sequence (P00742 41-179 limits assumed): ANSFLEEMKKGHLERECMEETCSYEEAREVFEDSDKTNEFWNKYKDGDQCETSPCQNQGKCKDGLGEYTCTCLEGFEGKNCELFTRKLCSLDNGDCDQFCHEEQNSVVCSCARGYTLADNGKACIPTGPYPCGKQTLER
Sequence (P00742 235-488 limits assumed): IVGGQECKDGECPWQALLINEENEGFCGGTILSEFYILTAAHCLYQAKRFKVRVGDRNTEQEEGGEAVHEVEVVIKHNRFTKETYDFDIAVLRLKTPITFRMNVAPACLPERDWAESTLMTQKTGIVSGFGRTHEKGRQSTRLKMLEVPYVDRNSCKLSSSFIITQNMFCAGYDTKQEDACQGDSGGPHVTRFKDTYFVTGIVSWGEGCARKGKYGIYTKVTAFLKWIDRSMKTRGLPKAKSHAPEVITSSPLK
Experiment: Inhibition of human factor Xa (inhibitor concentration were 3.6-44 uM)
Conditions: not given

Going from N=C(N)SCCCOc1oc(=O)c2cc(NC(=O)Nc3ccccc3)ccc2c1Cl to N=C(N)SCCCOc1oc(=O)c2cc(NC(=O)Cc3ccccc3)ccc2c1Cl, the K obs / 1 rises from 50 M⁻¹ s⁻¹ to 610 M⁻¹ s⁻¹ (12-fold).

N=C(N)SCCOc1oc(=O)c2cc(NC(=O)[C@H](N)Cc3ccccc3)ccc2c1Cl and N=C(N)SCCOc1oc(=O)c2cc(NC(=O)Cc3ccccc3)ccc2c1Cl are within 1.5-fold of each other in K obs / 1: 3770 M⁻¹ s⁻¹ for the first, 3630 M⁻¹ s⁻¹ for the second.

Compared with N=C(N)SCCCOc1oc(=O)c2cc(N)ccc2c1Cl, CCOc1oc(=O)c2cc(NC(=N)N)ccc2c1Cl is 180-fold higher in K obs / 1: 60 M⁻¹ s⁻¹ for the first, 11000 M⁻¹ s⁻¹ for the second.

Target: Coagulation factor IX (Homo sapiens) (UniProt P00740)
Experiment: Inhibition of porcine factor IXa at 8.3-82 uM
Conditions: Sus scrofa, target entry is the homologue from another species

Going from CN(C)c1cccc2c(S(=O)(=O)N[C@@H](CCC(=O)O)C(=O)NCC(=O)N[C@@H](CCCN=C(N)N)C(=O)CCl)cccc12 (Dansyl-Glu-Gly-Arg-CH2Cl) to N=C(N)SCCOc1oc(=O)c2cc(NC(=O)[C@H](N)Cc3ccccc3)ccc2c1Cl, the K obs / 1 rises from 180 M⁻¹ s⁻¹ to 1590 M⁻¹ s⁻¹ (8.8-fold).

N=C(N)SCCCOc1oc(=O)c2ccccc2c1Cl and N=C(N)SCCCOc1oc(=O)c2cc(N)ccc2c1Cl are within 1.5-fold of each other in K obs / 1: 90 M⁻¹ s⁻¹ for the first, 80 M⁻¹ s⁻¹ for the second.

Going from N=C(N)SCCCOc1oc(=O)c2cc(NC(=O)Nc3ccccc3)ccc2c1Cl to N=C(N)SCCCOc1oc(=O)c2cc(NC(=O)Cc3ccccc3)ccc2c1Cl, the K obs / 1 rises from 110 M⁻¹ s⁻¹ to 610 M⁻¹ s⁻¹ (5.5-fold).

CCOc1oc(=O)c2cc(NC(=N)N)ccc2c1Cl and N=C(N)SCCOc1oc(=O)c2cc(NC(=O)Cc3ccccc3)ccc2c1Cl are within 1.5-fold of each other in K obs / 1: 2850 M⁻¹ s⁻¹ for the first, 2620 M⁻¹ s⁻¹ for the second.

Target: T2, Coagulation factor XII (Homo sapiens) (UniProt P00748)
T2 sequence (whole entry): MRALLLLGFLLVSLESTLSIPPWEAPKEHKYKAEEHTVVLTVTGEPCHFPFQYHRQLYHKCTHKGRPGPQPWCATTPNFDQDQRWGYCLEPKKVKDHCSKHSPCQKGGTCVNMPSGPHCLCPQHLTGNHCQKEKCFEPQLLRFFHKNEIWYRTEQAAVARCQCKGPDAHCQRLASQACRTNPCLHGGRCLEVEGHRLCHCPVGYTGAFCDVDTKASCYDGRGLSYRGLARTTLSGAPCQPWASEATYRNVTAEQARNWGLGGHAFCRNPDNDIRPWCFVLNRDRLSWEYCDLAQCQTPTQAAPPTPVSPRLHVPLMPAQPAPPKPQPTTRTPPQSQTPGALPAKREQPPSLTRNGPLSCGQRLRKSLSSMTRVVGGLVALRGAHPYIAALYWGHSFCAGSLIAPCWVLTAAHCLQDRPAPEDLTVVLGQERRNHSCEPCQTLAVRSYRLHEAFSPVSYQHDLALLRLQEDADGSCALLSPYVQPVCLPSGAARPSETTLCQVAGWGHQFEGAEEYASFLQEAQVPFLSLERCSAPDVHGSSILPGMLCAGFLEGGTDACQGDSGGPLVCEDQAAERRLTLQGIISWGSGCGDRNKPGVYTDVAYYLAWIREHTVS
Experiment: Inhibition of human coagulation factor XII (inhibitor concentration were 3.6-4.9 uM)
Conditions: not given

Compared with N=C(N)SCCCOc1oc(=O)c2ccccc2c1Cl, N=C(N)SCCCOc1oc(=O)c2cc(N)ccc2c1Cl is 4.4-fold lower in K obs / 1: 27000 M⁻¹ s⁻¹ for the first, 6200 M⁻¹ s⁻¹ for the second.

Going from N=C(N)SCCCOc1oc(=O)c2cc(NC(=O)Nc3ccccc3)ccc2c1Cl to N=C(N)SCCCOc1oc(=O)c2cc(NC(=O)Cc3ccccc3)ccc2c1Cl, the K obs / 1 falls from 7720 M⁻¹ s⁻¹ to 610 M⁻¹ s⁻¹ (13-fold).

First: N=C(N)SCCOc1oc(=O)c2cc(NC(=O)[C@H](N)Cc3ccccc3)ccc2c1Cl
Second: N=C(N)SCCOc1oc(=O)c2cc(NC(=O)Cc3ccccc3)ccc2c1Cl
The K obs / 1 of the first is 1.8-fold higher: 107000 M⁻¹ s⁻¹ for the first, 59000 M⁻¹ s⁻¹ for the second.

CCOc1oc(=O)c2cc(NC(=N)N)ccc2c1Cl gave a K obs / 1 of 22000 M⁻¹ s⁻¹.

Target: Prothrombin (Homo sapiens) (UniProt P00734)
Experiment: Inhibition of human thrombin (inhibitor concentration 1.2-54 uM)
Conditions: not given

Going from N=C(N)SCCCOc1oc(=O)c2cc(NC(=O)Nc3ccccc3)ccc2c1Cl to N=C(N)SCCCOc1oc(=O)c2cc(NC(=O)Cc3ccccc3)ccc2c1Cl, the K obs / 1 falls from 1840 M⁻¹ s⁻¹ to 610 M⁻¹ s⁻¹ (3-fold).

Compared with N=C(N)SCCOc1oc(=O)c2cc(NC(=O)[C@H](N)Cc3ccccc3)ccc2c1Cl, N=C(N)SCCOc1oc(=O)c2cc(NC(=O)Cc3ccccc3)ccc2c1Cl is 5-fold higher in K obs / 1: 1340 M⁻¹ s⁻¹ for the first, 6730 M⁻¹ s⁻¹ for the second.

With N=C(N)SCCCOc1oc(=O)c2cc(N)ccc2c1Cl the K obs / 1 was 760 M⁻¹ s⁻¹.

Target: Coagulation factor XI (Homo sapiens) (UniProt P03951)
Sequence (P03951 19-387 limits assumed): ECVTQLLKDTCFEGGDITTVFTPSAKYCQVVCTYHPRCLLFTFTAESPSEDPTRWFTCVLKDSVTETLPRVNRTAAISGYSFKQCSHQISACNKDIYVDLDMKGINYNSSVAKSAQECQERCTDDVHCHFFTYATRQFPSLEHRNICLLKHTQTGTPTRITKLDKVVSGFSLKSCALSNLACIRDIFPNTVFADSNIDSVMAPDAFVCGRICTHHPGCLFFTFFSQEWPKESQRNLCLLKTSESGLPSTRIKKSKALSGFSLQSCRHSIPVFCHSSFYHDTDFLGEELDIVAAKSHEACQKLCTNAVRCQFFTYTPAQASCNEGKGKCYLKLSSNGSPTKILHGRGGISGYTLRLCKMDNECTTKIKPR
Sequence (P03951 388-625 limits assumed): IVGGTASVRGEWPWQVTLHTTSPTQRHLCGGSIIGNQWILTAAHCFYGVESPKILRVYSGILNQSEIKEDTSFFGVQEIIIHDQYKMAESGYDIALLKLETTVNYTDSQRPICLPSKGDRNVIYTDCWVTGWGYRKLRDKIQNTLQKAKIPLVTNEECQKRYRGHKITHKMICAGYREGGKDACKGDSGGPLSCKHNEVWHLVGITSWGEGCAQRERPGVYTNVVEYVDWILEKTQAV
Experiment: Compound was evaluated for inhibition of enzyme human coagulation factor XI (inhibitor concentration were 0.7-0.8 uM)
Conditions: not given

Going from N=C(N)SCCCOc1oc(=O)c2ccccc2c1Cl to N=C(N)SCCCOc1oc(=O)c2cc(N)ccc2c1Cl, the K obs / 1 falls from 47000 M⁻¹ s⁻¹ to 22000 M⁻¹ s⁻¹ (2.1-fold).

Compared with N=C(N)SCCCOc1oc(=O)c2cc(NC(=O)Cc3ccccc3)ccc2c1Cl, CCOc1oc(=O)c2cc(NC(=N)N)ccc2c1Cl is 98-fold higher in K obs / 1: 610 M⁻¹ s⁻¹ for the first, 60000 M⁻¹ s⁻¹ for the second.
